{"source": "patent US20150150888A1", "about": "“COMBINATION OF SELECTIVE PROGESTERONE-RECEPTOR MODULATORS AND NONSTEROIDAL ANTI-INFLAMMATORY DRUGS” (LABORATOIRE HRA-PHARMA, priority 2012, published 2015)", "key": {"follicular rupture": {"system": "follicular rupture", "settings": "administration after the LH peak; cited from earlier work"}, "[1]": {"settings": "single dose of 30 mg within 72 or 120 hours after sexual intercourse; cited from earlier work"}, "[2]": {"system": "LH-induced ovarian follicle rupture", "test": "ovarian hyperstimulation (superovulation) model: counting the oocytes released into the oviducts", "type": "in vivo, CD1 mice", "settings": "for number of oocytes released into the oviducts compared with the control group: oocytes counted 18 h after hCG", "protocol": "The effect of the combined administration of ulipristal acetate (UPA) and of a non-steroidal anti-inflammatory agent (NSAID) on LH-induced ovarian follicle rupture was evaluated in an animal model of ovarian hyperstimulation (superovulation model).\n(§1) 24 to 28-day-old immature CD1 mice were subjected to ovarian hyperstimulation by injection of 5 IU of PMSG (pregnant mare's serum gonadotropin) followed, 48 h later, by 5 IU of hCG (chorionic gonadotropin hormone) intraperitoneally. The mice were divided up into several groups, each of 10 mice. 8 hours after the hCG injection, the mice were administered, intraperitoneally, with either the compound(s) to be tested, or the placebo (vehicle). The mice were euthanized 18 hours after the hCG injection. The effect of the compound(s) on follicular rupture and therefore ovulation was determined by counting the oocytes released into the oviducts. In experiment series No. 2, a morphological and histological examination of the ovaries was carried out so as to evaluate the presence of unruptured follicles and/or of yellow bodies in the ovaries of each group of animals.\nSeries 1: • Group 1: placebo • Group 2: 3 mg/kg of piroxicam • Group 3: 10 mg/kg of piroxicam • Group 4: 30 mg/kg of piroxicam.\nSeries 2: • Group 1: placebo • Group 2: 40 mg/kg of ulipristal acetate • Group 3: 40 mg/kg of ulipristal acetate+3 mg/kg of piroxicam • Group 4: 40 mg/kg of ulipristal acetate+30 mg/kg of piroxicam. […]"}, "[3]": {"system": "LH-induced ovarian follicle rupture", "test": "morphological and histological examination of the ovaries (unruptured follicles, yellow bodies) in the superovulation model", "type": "in vivo, CD1 mice", "settings": "40 mg/kg UPA in the absence of piroxicam, compared with groups 3 and 4", "protocol": "as §1"}}}
{"smiles": "CC(=O)O[C@]1(C(C)=O)CCC2C3CCC4=CC(=O)CCC4=C3[C@@H](c3ccc(N(C)C)cc3)C[C@@]21C", "note": "(stereo partly drawn) [ulipristal acetate, 17α-acetoxy-11β-[4-N,N-dimethylaminophenyl)-19-norpregna-4,9-diene-3,20-dione]", "values": [{"measurement": "inhibition of follicular rupture during the 5 days following administration, cases", "setting": "follicular rupture", "result": 8.3, "unit": "%"}, {"measurement": "prevention of unwanted pregnancy after unprotected or poorly protected sexual intercourse", "setting": "[1]", "result": "safe and effective"}, {"measurement": "mean number of oocytes released compared with the control group", "setting": "[2]; 40 mg/kg UPA 8 h after hCG injection, piroxicam series 2", "result": "approximately −50%"}, {"measurement": "number of oocytes released compared with the control group", "setting": "[2]; group 2: 40 mg/kg ulipristal acetate, ibuprofen series 2", "result": "significant decrease"}, {"measurement": "yellow bodies (corpus luteum) in histological sections", "setting": "[3]", "result": "more numerous"}]}
{"smiles": "CC(C)Cc1ccc(C(C)C(=O)O)cc1", "note": "(stereo not drawn) [ibuprofen]", "values": [{"measurement": "effect on ovulation compared with the control group", "setting": "[2]; ibuprofen alone, dose between 15 mg and 150 mg (per kg)", "result": "no significant effect"}]}
{"smiles": "CN1C(C(=O)Nc2ccccn2)=C(O)c2ccccc2S1(=O)=O", "note": "[piroxicam]", "values": [{"measurement": "number of oocytes released into the oviducts compared with the control group", "setting": "[2]; piroxicam 3 mg/kg i.p. 8 h after hCG", "result": "does not significantly reduce"}, {"measurement": "number of oocytes released into the oviducts compared with the control group", "setting": "[2]; piroxicam 10 mg/kg i.p. 8 h after hCG", "result": "does not significantly reduce"}, {"measurement": "number of oocytes released into the oviducts compared with the control group", "setting": "[2]; piroxicam 30 mg/kg i.p. 8 h after hCG", "result": "significantly reduce"}]}
